Measured values reported in US6214615A (The United States of America as represented by the …, priority 1996, dated 2001).

Assays:
[1] = target: T1, human dopamine D2 receptor (Homo sapiens, UniProt P14416); conditions: 0.7 nM ^3 H-raclopride; transfected COS-7 cells
Description: Expression and Transfection. […] COS-7 cells were plated at a density of 1×10^6 cells/10 cm dish.
(§1) Radioligand binding. Cells were scraped 48-72 hours after transfection into 10 ml of PBS/10 cm dish and pelleted at 1000× g. Cells were resuspended in 10 mM Tris, 1 mM EDTA, 5 mM MgCl2 and homogenized with a polytron (Brinkman). A total particulate fraction was prepared by centrifugation at 45,000× g for 15 min. […] Reactions were initiated by addition of 0.4 ml of tissue in binding buffer to 0.1 ml of drugs. […] Reactions were terminated by filtering membranes through Whatman GFC filters using a cell harvester (Brandel). Data were analyzed by nonlinear regression on a VAX II computer using the program DATAPLOT (distributed by the National Technical Information Service).

[2] = target: T1, human dopamine D2 receptor; assay: Saturation radioligand binding to membranes of transfected COS-7 cells; parameters: rescreened with the S1 probe alone to identify those most likely to be full length; expressed in transfected cells; host or cells: COS-7 cells (transient, 16A-pCD-PS DNA)
Description: COS-7 cells were plated at a density of 1×10^6 cells/10 cm dish. One to two days after plating, cells were transfected with 16A-pCD-PS DNA using a modification of the calcium phosphate precipitation procedure.
as §1

T1 sequence (P14416 1-414 isoform P14416-2): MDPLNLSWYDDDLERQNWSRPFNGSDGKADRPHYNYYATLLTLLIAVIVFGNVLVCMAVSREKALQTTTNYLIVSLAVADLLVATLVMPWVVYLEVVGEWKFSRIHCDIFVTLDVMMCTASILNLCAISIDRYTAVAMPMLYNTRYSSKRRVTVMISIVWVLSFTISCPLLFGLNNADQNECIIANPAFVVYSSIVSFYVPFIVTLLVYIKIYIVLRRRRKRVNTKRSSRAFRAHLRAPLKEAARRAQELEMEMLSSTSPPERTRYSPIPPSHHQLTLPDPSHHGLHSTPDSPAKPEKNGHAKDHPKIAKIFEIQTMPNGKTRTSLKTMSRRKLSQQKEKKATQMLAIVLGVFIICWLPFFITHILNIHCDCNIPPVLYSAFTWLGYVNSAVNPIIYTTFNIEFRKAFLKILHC

Row | n (hill number) [1] | Molecule | also measured
1 | 1.0 ± 0.1 | CCN1CCC[C@@H]1CNC(=O)c1cc(S(N)(=O)=O)ccc1OC [(+)sulphride] | –
2 | 1.2 ± 0.2 | CCN1CCC[C@H]1CNC(=O)c1cc(S(N)(=O)=O)ccc1OC [(-)sulphride] | –

More lines, now with the values behind:

Row | Molecule | n (hill number) [1] | also measured
3 | CCN1CCC[C@H]1CNC(=O)c1c(O)c(Cl)cc(Cl)c1OC [^3 H-raclopride] | – | maximum number of binding sites ([2]; COS-7 transfected with 16A-pCD-PS): 800±110 fmole/mg protein
4 | CN1CCc2cccc3c2[C@H]1Cc1ccc(O)c(O)c1-3 [apomorphine] | 1.0 ± 0.1 | –
5 | CN(C)CCCN1c2ccccc2Sc2ccc(Cl)cc21 [chlorpromazine] | 0.9 ± 0.1 | –
6 | NCCc1ccc(O)c(O)c1 [dopamine] | 1.1 ± 0.1 | –
7 | ^3 H-SCH23396 | – | displacable binding to transfected COS-7 cells ([2]; concentrations up to 5 nM, displaced by chlorpromazine): did not show significant displacable binding
